How the values were obtained:
Botrytis cinerea [1] = experiment: white roses with natural inoculum, volatile treatment; assay type: in vivo; design: key to Severity (0-4): 0 = No disease; 1 = Browning and small lesions on the sepals or petals; 2 = Browning, petals covered with fungal spores; 3 = Browning, petals covered with fungal spores, some petal drop; 4 = Browning, petals covered with fungal spores, some flowers aborted
Method: A similar test like the one described above is also performed on white roses with natural inoculum. Five white roses are placed in an 800 mL jar containing 200 mL of a common commercial flower preservative.
Three jars are then placed in a 117 L Rubbermaid storage box (Cat #2244). Two small fans are place in opposite ends of the container to assist with the volatile distribution of compound A. The tub is closed tightly, and then Compound A is diluted in acetone, and then pipetted onto a 1.5 inch×1 inch cotton strip. The acetone is allowed to evaporate for five minutes. Compound A is then introduced to the containers by a sublimation device (copper tube heated to 200° C. with fan flow at 0.5 L/min) to achieve a final headspace concentration of 0.04, 0.2, 1 mg/L, through a ½″ side port that is sealed immediately after the application. Alternatively, Compound A is pipetted onto a 42.5 mm Whatman #1 filter disk (Cat. No. 1001-042), supported by a watch glass, where the acetone is allowed to evaporate for five minutes prior to sealing the container. The flowers are incubated for three days at 21° C. After treatment, flowers are evaluated for an additional two days for disease incidence and severity of the flower petals. Applying a treatment at 1 mg/L through sublimation results in 0% incidence. Rose petals after treatment with Compound A have no disease incidence, retained white color, and the roses had no petal drop.

Botrytis cinerea [2] = experiment: in vivo sublimation bioassay on fruit, 1 mg/L (Example 31); conditions: for Incidence (%) / Severity (0-4): 1 mg/L sublimed, three day treatment plus three days at 21° C.
Method: (§1) To assess the in vivo activity of volatile antimicrobial Compounds A and B (FIG. 1) in fruit, a volatile bioassay is developed using apple, pear, orange, strawberry, grape and blueberry.
(§2) Two apples, 2 oranges, 2 pears, 8 strawberries, 16 grapes or 30 blueberries (per replicate, in duplicate) are placed in a clamshell with the stem end facing up for all fruits except for strawberry (stem end facing downwards). A fresh wound is inoculated with 20 μL 1×10^6 per mL Penicillium expansum spore suspension (apple and pear), 20 μL 1×10^6 per mL Penicillium digitatum spore suspension (orange), and 20 μL (strawberry and grape) or 10 μL (blueberry) of 1×10^6 per mL Botrytis cinerea spore suspension. The clamshells are placed inside a 117 L Rubbermaid storage box (Cat #2244) with lids closed. […] After treatment, fruits are held for an additional three days at 21° C., then evaluated for disease incidence (mm diameter of browning or water-soaked lesions) and pathogen sporulation (mm diameter) for apple, pear and orange, as well as Botrytis cinerea disease incidence (%) and severity (0 to 4) for strawberry, grape and blueberry, with results summarized in Table 30.

Penicillium digitatum = experiment: as above
Method: as §1, §2

Penicillium expansum = experiment: as above; conditions: 1 mg/L sublimed, three day treatment plus three days at 21° C.
Method: as §1, §2

[3] = 0.04 mg/L, Applied through sublimation
[4] = 0.04 mg/L, Volatilized from Whatman Filter
[5] = 0.2 mg/L, Applied through sublimation
[6] = 0.2 mg/L, Volatilized from Whatman Filter
[7] = 1 mg/L, Applied through sublimation
[8] = 1 mg/L, Volatilized from Whatman Filter
[9] = Orange, 1 mg/L sublimed, three day treatment plus three days at 21° C.

For `OB1OCc2cc(F)ccc21` [Compound A], the “Incidence (%)” value (Botrytis cinerea [1]; [3]) was 46.7%, the “Severity (0-4)” value (Botrytis cinerea [1]; [3]) was 1.7 and the “Incidence (%)” value (Botrytis cinerea [1]; [4]) was 46.7%. For the same compound, the “Severity (0-4)” value (Botrytis cinerea [1]; [4]) was 1.1, the “Incidence (%)” value (Botrytis cinerea [1]; [5]) was 13.3% and the “Severity (0-4)” value (Botrytis cinerea [1]; [5]) was 0.5. The “Incidence (%)” value (Botrytis cinerea [1]; [6]) was 66.7%, the “Severity (0-4)” value (Botrytis cinerea [1]; [6]) was 1.8 and the “Incidence (%)” value (Botrytis cinerea [1]; [7]) was 0%. The “Severity (0-4)” value (Botrytis cinerea [1]; [7]) was 0, the “Incidence (%)” value (Botrytis cinerea [1]; [8]) was 53.3% and the “Severity (0-4)” value (Botrytis cinerea [1]; [8]) was 1.6. The “in vivo antimicrobial control of B. cinerea” value (Botrytis cinerea [2]; 1 mg/L, volatile fungicide on different hosts) was 100%, the “Incidence (%)” value (Botrytis cinerea [2]; Blueberry) was 0.0% and the “Severity (0-4)” value (Botrytis cinerea [2]; Blueberry) was 0.0. For the same compound, the “Incidence (%)” value (Botrytis cinerea [2]; Grape) was 0.0%, the “Severity (0-4)” value (Botrytis cinerea [2]; Grape) was 0.0 and the “Incidence (%)” value (Botrytis cinerea [2]; Strawberry) was 0.0%. For the same compound, the “Severity (0-4)” value (Botrytis cinerea [2]; Strawberry) was 0.0, the “in vivo antimicrobial control of P. digitatum” value (Penicillium digitatum; 1 mg/L, volatile fungicide) was 100% and the “Sporulation (mm)” value (Penicillium digitatum; [9]) was 0.0 mm. The Water soaked lesion (Penicillium digitatum; [9]) was 0.0 mm, the “Browning (mm)” value (Penicillium expansum; Apple) was 0.8 mm and the “Sporulation (mm)” value (Penicillium expansum; Apple) was 0.0 mm. For the same compound, the “Browning (mm)” value (Penicillium expansum; Pear) was 4.7 mm and the “Sporulation (mm)” value (Penicillium expansum; Pear) was 0.0 mm.

Reference: US9426996B2, “Use of benzoxaboroles as volatile antimicrobial agents on meats, plants, or plant parts” (AgroFresh Inc., priority 2013, dated 2016)
